Results taken from patent publication US10738028B2, “Spiro three-membered ring, spiro five-membered ring peptide deformylase inhibitor and use thereof in antibacteria and anti-tumor” (priority 2016, dated 2020).

How the values were obtained:
Assay type in all cases: cell-based
[1] = test system: Enterococcus faecalis (EFA); test: MIC, two-fold agar dilution (CLSI), clinical isolates
In short: (§1)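 Susceptibility was tested using CLSI two-fold agar dilution against the strains examined.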

[2] = test system: Enterococcus faecium (EFM); test: as above
In short: as §1

[3] = test system: Escherichia coli (including ESBLs, non-ESBLs); test: as above
In short: as §1

[4] = test system: Moraxella catarrhalis (BCA); test: as above
In short: as §1

[5] = test system: Streptococcus pneoumoniae (SPN); test: as above
In short: as §1

[6] = test system: methicillin-resistant Staphylococcus aureus (MRSA); test: as above
In short: as §1

[7] = test system: methicillin-resistant Staphylococcus epidermidis (MRSE); test: as above
In short: as §1

[8] = test system: methicillin-sensitive Staphylococcus aureus (MSSA); test: as above
In short: as §1

[9] = test system: methicillin-sensitive Staphylococcus epidermidis (MSSE); test: as above
In short: as §1

[10] = test system: HCT-116 colorectal cancer cell line; test: CCK-8 proliferation inhibition; conditions: concentration of 30 μM; 72 hours; CCK-8; 30 µM
In short: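 Proliferation over 72 hours of compound treatment was measured with CCK-8 against a 1‰ DMSO control.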

[11] = test system: A549 lung cancer cell line; test: CCK-8 proliferation inhibition; conditions: concentration of 30 μM
In short: (§2)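 Plating at 2000 cells/well, then incubation overnight at 37° C. Next, a range of compound concentrations for 72 hours (control 1‰ DMSO). Finally, medium decanted and CCK-8 diluted 1:10 added.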

[12] = test system: BEL-7402 liver cancer cell line; test: CCK-8 proliferation inhibition; conditions: concentration of 30 μM, 72 hours, 30 µM
In short: as §2

[13] = test system: MGC-803 gastric cancer cell line; test: CCK-8 proliferation inhibition; conditions: concentration of 30 μM
In short: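 Using media specific to each line (1640 for MGC-803 and Jurkat, F12 for PC3, DMEM high glucose for MCF-7, each with 10% newborn bovine serum), cells at 2000/well were treated for 72 h with serially formulated compounds, then assessed with CCK-8 diluted 1:10.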

`O=C(C[C@@H](CC1CCCC1)C(=O)N1CC2(CC2)C[C@H]1C(=O)Nc1cnccn1)NO` [Example 62] was tested, and the Anti-bacterial activity (MIC), strain EFA 15-1 ([1]; clinical isolate EFA 15-1) was greater than 32 µg/mL, the Anti-bacterial activity (MIC), strain EFA 15-2 ([1]; clinical isolate EFA 15-2) was greater than 32 µg/mL and the Anti-bacterial activity (MIC), strain EFA 15-3 ([1]; clinical isolate EFA 15-3) was greater than 32 µg/mL. It also gave an Anti-bacterial activity (MIC), strain EFA 15-4 ([1]; clinical isolate EFA 15-4) greater than 32 µg/mL, an Anti-bacterial activity (MIC), strain EFA 15-5 ([1]; clinical isolate EFA 15-5) greater than 32 µg/mL and an Anti-bacterial activity (MIC), strain EFA 15-6 ([1]; clinical isolate EFA 15-6) greater than 32 µg/mL. The Anti-bacterial activity (MIC), strain EFA 15-9 ([1]; clinical isolate EFA 15-9) was 8 µg/mL, the Anti-bacterial activity (MIC), strain EFM 15-1 ([2]; clinical isolate EFM 15-1) was greater than 32 µg/mL and the Anti-bacterial activity (MIC), strain EFM 15-2 ([2]; clinical isolate EFM 15-2) was greater than 32 µg/mL. The Anti-bacterial activity (MIC), strain EFM 15-3 ([2]; clinical isolate EFM 15-3) was greater than 32 µg/mL, the Anti-bacterial activity (MIC), strain EFM 15-4 ([2]; clinical isolate EFM 15-4) was greater than 32 µg/mL and the Anti-bacterial activity (MIC), strain EFM 15-5 ([2]; clinical isolate EFM 15-5) was 0.5 µg/mL. The Anti-bacterial activity (MIC), strain EFM 15-6 ([2]; clinical isolate EFM 15-6) was 0.5 µg/mL, the Anti-bacterial activity (MIC), strain ECO+ 15-1 ([3]; clinical isolate ECO+ 15-1) was 0.5 µg/mL and the Anti-bacterial activity (MIC), strain ECO+ 15-2 ([3]; clinical isolate ECO+ 15-2) was 0.5 µg/mL. It also gave an Anti-bacterial activity (MIC), strain ECO+ 15-3 ([3]; clinical isolate ECO+ 15-3) of 0.5 µg/mL, an Anti-bacterial activity (MIC), strain ECO+ 15-4 ([3]; clinical isolate ECO+ 15-4) of 0.5 µg/mL and an Anti-bacterial activity (MIC), strain ECO− 15-1 ([3]; clinical isolate ECO− 15-1) of 16 µg/mL. The Anti-bacterial activity (MIC), strain ECO− 15-2 ([3]; clinical isolate ECO− 15-2) was 16 µg/mL, the Anti-bacterial activity (MIC), strain ECO− 15-3 ([3]; clinical isolate ECO− 15-3) was 16 µg/mL and the Anti-bacterial activity (MIC), strain ECO− 15-4 ([3]; clinical isolate ECO− 15-4) was 16 µg/mL. The Anti-bacterial activity (MIC), strain BCA 14-1 ([4]; clinical isolate BCA 14-1) was 2 µg/mL, the Anti-bacterial activity (MIC), strain BCA 14-4 ([4]; clinical isolate BCA 14-4) was 2 µg/mL and the Anti-bacterial activity (MIC), strain BCA 14-5 ([4]; clinical isolate BCA 14-5) was 0.5 µg/mL. The Anti-bacterial activity (MIC), strain BCA 14-6 ([4]; clinical isolate BCA 14-6) was 2 µg/mL, the Anti-bacterial activity (MIC), strain BCA 14-7 ([4]; clinical isolate BCA 14-7) was 2 µg/mL and the Anti-bacterial activity (MIC), strain BCA 14-8 ([4]; clinical isolate BCA 14-8) was 2 µg/mL. It also gave an Anti-bacterial activity (MIC), strain BCA 14-10 ([4]; clinical isolate BCA 14-10) of 1 µg/mL, an Anti-bacterial activity (MIC), strain SPN 16-2 ([5]; clinical isolate SPN 16-2) of 0.25 µg/mL and an Anti-bacterial activity (MIC), strain SPN 16-4 ([5]; clinical isolate SPN 16-4) of 0.5 µg/mL. The Anti-bacterial activity (MIC), strain MRSA 15-1 ([6]; clinical isolate MRSA 15-1) was 0.125 µg/mL, the Anti-bacterial activity (MIC), strain MRSA 15-2 ([6]; clinical isolate MRSA 15-2) was 0.5 µg/mL and the Anti-bacterial activity (MIC), strain MRSA 15-3 ([6]; clinical isolate MRSA 15-3) was 0.5 µg/mL. The Anti-bacterial activity (MIC), strain MRSA 15-4 ([6]; clinical isolate MRSA 15-4) was 0.5 µg/mL, the Anti-bacterial activity (MIC), strain MRSE 15-1 ([7]; clinical isolate MRSE 15-1) was 16 µg/mL and the Anti-bacterial activity (MIC), strain MRSE 15-2 ([7]; clinical isolate MRSE 15-2) was 16 µg/mL. For the same compound, the Anti-bacterial activity (MIC), strain MRSE 15-3 ([7]; clinical isolate MRSE 15-3) was 0.5 µg/mL, the Anti-bacterial activity (MIC), strain MRSE 15-7 ([7]; clinical isolate MRSE 15-7) was 0.5 µg/mL and the Anti-bacterial activity (MIC), strain MSSA 15-3 ([8]; clinical isolate MSSA 15-3) was 0.5 µg/mL. The Anti-bacterial activity (MIC), strain MSSA 15-4 ([8]; clinical isolate MSSA 15-4) was 0.5 µg/mL, the Anti-bacterial activity (MIC), strain MSSA 15-5 ([8]; clinical isolate MSSA 15-5) was 16 µg/mL and the Anti-bacterial activity (MIC), strain MSSA 15-6 ([8]; clinical isolate MSSA 15-6) was 16 µg/mL. For the same compound, the Anti-bacterial activity (MIC), strain MSSE 15-3 ([9]; clinical isolate MSSE 15-3) was 0.5 µg/mL, the Anti-bacterial activity (MIC), strain MSSE 15-4 ([9]; clinical isolate MSSE 15-4) was 0.5 µg/mL and the Anti-bacterial activity (MIC), strain MSSE 15-5 ([9]; clinical isolate MSSE 15-5) was 0.5 µg/mL. It also gave an Anti-bacterial activity (MIC), strain MSSE 15-6 ([9]; clinical isolate MSSE 15-6) of 0.5 µg/mL, an HCT116 inhibition rate/% [10] of 79% and an inhibition at 30 µM ([11]; Homo sapiens, A549, 72 h) greater than 50%. For the same compound, the “Inhibition of proliferation, Lung cancer A549” value ([11]; 72 hours, 30 µM) was 59%, the “Inhibition of proliferation, Liver cancer BEL-7402” value [12] was 75% and the inhibition at 30 µM ([13]; Homo sapiens, MGC-803, 72 h) was greater than 50%. The “Inhibition of proliferation, Gastric cancer MGC-803” value ([13]; 72 hours, 30 µM) was 64%.
